{
  "source": "patent US11052154B2",
  "about": "“Ras protein degradation inducing molecule and pharmaceutical composition” (Tokyo University of Science Foundation, priority 2016, dated 2021)",
  "target": "T1, wild-type K-Ras protein (Homo sapiens, UniProt P01116)",
  "T1 construct": "expressed in transfected cells; host or cells: HeLa",
  "T1 sequence (P01116 1-188 isoform P01116-2)": "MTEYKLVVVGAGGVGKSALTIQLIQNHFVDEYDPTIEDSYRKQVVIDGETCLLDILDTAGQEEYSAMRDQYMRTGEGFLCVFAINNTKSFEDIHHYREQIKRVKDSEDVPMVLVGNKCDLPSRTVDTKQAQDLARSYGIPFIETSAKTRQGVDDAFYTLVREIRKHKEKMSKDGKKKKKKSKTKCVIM",
  "test": "Degradation (knockdown) of wild-type K-Ras protein forcibly expressed in HeLa cells, Western blot analysis",
  "type": "cell-based",
  "conditions": "FIG. 2",
  "description": "In Example 3, degradation (knockdown) of a forcibly expressed wild-type K-Ras protein in HeLa cells through TUS-007 was evaluated by Western blot analysis.\nA plasmid expressing the wild-type K-Ras protein (K-Ras-WT) was prepared, as in Example 2.\nAs in Example 2, the plasmid was introduced into HeLa cells to transiently overexpress the wild-type K-Ras protein (specifically, a fusion protein of the wild-type K-Ras protein and GFP through a HA tag) or a DsRed protein for comparison in the cells. HeLa cells into which the plasmid had been introduced were seeded in a 24-well plate at a cell density of 4×10^4 cells/well, and then cultured under conditions of 37° C. and 5 vol % CO2 for 40 hours.\nCulture was performed for 40 hours after introduction of the plasmid, and then TUS-007 was added to HeLa cells as follows. […]\nAfter electrophoresis, proteins were transferred to a PVDF membrane (Immobion™-P, Millipore) under conditions of 100 V and 120 minutes using a tank-type blotting device and a transfer buffer (25 mM Tris-HCl, 195 mM glycine, 0.01% SDS, 15% methanol). […] Subsequently, the membrane was treated with a chemiluminescence reagent Immobilon™ Western (Millipore), and then chemiluminescence was detected using a lumino image analyzer LAS-3000 (FUJIFILM Corporation). […]",
  "data": [
    {"smiles": "CCC(C)[C@H](NC(=O)CCCCCCNC(=O)[C@H](CC(C)C)NC(=O)CNC(=O)c1cc(Cl)ccc1Cl)C(=O)Nc1ccc2[nH]c(Cc3c[nH]c4ccccc34)nc2c1", "note": "(stereo in doubt) [TUS-007]", "values": [
      {"measurement": "amount of the wild-type K-Ras protein (Western blot)", "setting": "24 hours after addition, relative to control (DMSO)", "value": "the amount of the wild-type K-Ras protein was reduced"},
      {"measurement": "amount of the wild-type K-Ras protein when both TUS-007 and MLN2238 were added (Western blot)", "setting": "MLN2238 co-added, vs control (DMSO)", "value": "the amount of the wild-type K-Ras protein was increased as compared with the amount of the control (DMSO)"}
    ]}
  ]
}
